Source: PMC8153946, “Substrate Selectivity of Coumarin Derivatives by Human CYP1 Enzymes: In Vitro Enzyme Kinetics and In Silico Modeling” (ACS Omega, 2021)

Columns and labels:
Type in all cases: biochemical
[1] = system: human CYP1 enzymes (CYP1A1, CYP1A2, CYP1B1); assay: Oxidation efficiency compared across all CYP1 forms (Table 1); conditions: based on Table 1
Method: (§1) Baculovirus-insect cell-expressed human CYP1A1, CYP1A2, CYP1B1, CYP2A6, CYP2B6, CYP2C8, CYP2C9, CYP2C19, CYP2D6, CYP2E1, CYP3A4, CYP3A5, and CYP3A7 were purchased from BD Biosciences Discovery Labware (Woburn, MA, USA) and used according to the manufacturer’s instructions.
(§2) The kinetic assays were carried out in 100 μL volume containing 100 mM Tris-HCl buffer pH 7.4, 0–40 μM coumarin derivative or 0–10 μM 7-ethoxyresorufin, 1–25 nM recombinant CYP or 0–0.1 g/L microsomal protein, and 20% NADPH regenerating system. Incubations took place at 37 °C in 96-multiwell plates; the fluorescence was measured with a Victor[2] plate reader (PerkinElmer Life Sciences, Turku, Finland). The detailed conditions are described in the figures and tables. The reaction was started by adding NADPH, and fluorescence was measured at 2 min intervals for 40 min using excitation at 405 nm and emission at 460 nm for oxidation of coumarin derivatives[18] and excitation at 570 nm and emission at 615 nm for ethoxyresorufin or pentoxyresorufin 7-O-dealkylations. Incubations without the substrate, enzyme, or NADPH were used as blank reactions. Resorufin was used as a standard, and 3-(4-fluorophenyl)-7-hydroxycoumarin was used as the surrogate standards to calculate the amount of product formed. The linear phase of the reactions was used for calculations.
(§3) Enzyme kinetic parameters were analyzed using the nonlinear Michaelis–Menten equation v = Vmax × S/(Km + S), in which v is the rate for 7-hydroxylation of a coumarin derivative, S is its concentration, and Vmax value is the limiting rate of the reaction of 7-hydroxylation, which reached a half-maximal rate at a concentration of Km for the substrate.

[2] = system: 13 recombinant human CYP enzymes; assay: Oxidation rates by 13 recombinant human CYP enzymes at fixed substrate concentration (Figure 2); conditions: 25 nM CYP; for CYP1 form oxidizing the substrate fastest: 10 μM coumarin derivative or 1 μM 7-ethoxy/7-pentoxyresorufin; for fluorescence change and rate of the oxidation / oxidation rate relative to oxidation of 7-pentoxyresorufin: fixed substrate concentration
Method: as §1, §2
To find out which CYP forms oxidize the 11 novel coumarin derivatives, we determined their oxidation rates to the corresponding 7-hydroxycoumarin metabolites by 13 recombinant human CYP enzymes at a fixed 10 μM substrate concentration (Figure 2). All except 21, 22, and 23 were oxidized faster by one or several CYP1 forms than by the other CYP forms. […] Oxidation rates of the classical CYP substrates 7-ethoxycoumarin, 7-ethoxyresorufin, and 7-pentoxyresorufin were also determined. […] Oxidation of 7-ethoxycoumarin and 7-ethoxyresorufin was 35 and 60 times faster, respectively, than oxidation of 7-pentoxyresorufin. 7-Ethoxyresorufin was oxidized by CYP1A2 and CYP1B1 at 30–40% of the rate of CYP1A1.
Figure 2 Oxidation of the coumarin derivatives and 7-ethoxy- and 7-pentoxyresorufin by 13 human CYP forms. The formation of fluorescent metabolites was determined in incubations containing a 25 nM CYP, a 20% NADPH regenerating system, and a 10 μM coumarin derivative or 1 μM 7-ethoxy/7-pentoxyresorufin in 100 mM Tris-HCl pH 7.4 in the kinetic experimental setup. […] Note the variation in Y-axis scales between subpanels.

human CYP1B1 = target: T1, human CYP1B1 (Homo sapiens, UniProt Q16678); assay: Michaelis–Menten kinetics of oxidation to fluorescent 7-hydroxy metabolite by recombinant CYP1B1; parameters: key to screening activity class: NA, no activity was observed.; LA, low screening activity at the 20 μM substrate and 25 nM CYP concentration; conditions: for screening activity class: CYP1B1, 20 μM substrate and 25 nM CYP
T1 construct: purchased BD Biosciences Discovery Labware (Woburn, MA, USA); host or cells: baculovirus-insect cells
T1 sequence (Q16678 1-543): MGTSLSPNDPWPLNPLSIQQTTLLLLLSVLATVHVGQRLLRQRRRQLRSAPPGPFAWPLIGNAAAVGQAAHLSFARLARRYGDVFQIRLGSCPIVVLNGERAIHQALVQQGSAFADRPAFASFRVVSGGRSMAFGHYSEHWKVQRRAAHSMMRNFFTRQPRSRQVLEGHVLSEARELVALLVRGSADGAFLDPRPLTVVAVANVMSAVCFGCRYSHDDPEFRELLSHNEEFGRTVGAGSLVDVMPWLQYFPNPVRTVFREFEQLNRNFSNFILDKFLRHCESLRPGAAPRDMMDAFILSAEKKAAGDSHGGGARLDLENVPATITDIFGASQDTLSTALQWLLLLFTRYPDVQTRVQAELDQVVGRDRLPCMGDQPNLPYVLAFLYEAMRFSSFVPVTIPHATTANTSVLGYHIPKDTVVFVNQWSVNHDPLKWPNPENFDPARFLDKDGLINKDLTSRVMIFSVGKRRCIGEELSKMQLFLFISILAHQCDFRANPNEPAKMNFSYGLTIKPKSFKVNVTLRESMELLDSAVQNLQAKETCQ
Method: as §1, §2, §3

human CYP1A1 = target: T2, human CYP1A1 (Homo sapiens, UniProt P04798); assay: Michaelis–Menten kinetics of oxidation to fluorescent 7-hydroxy metabolite by recombinant CYP1A1; parameters: key to screening activity class: NA, no activity was observed.; LA, low screening activity at the 20 μM substrate and 25 nM CYP concentration; conditions: for Vmax: recombinant CYP1A1, surrogate standard, 95% confidence interval in brackets; for screening activity class: CYP1A1, 20 μM substrate and 25 nM CYP
T2 construct: purchased BD Biosciences Discovery Labware (Woburn, MA, USA); host or cells: baculovirus-insect cells
T2 sequence (P04798 1-512): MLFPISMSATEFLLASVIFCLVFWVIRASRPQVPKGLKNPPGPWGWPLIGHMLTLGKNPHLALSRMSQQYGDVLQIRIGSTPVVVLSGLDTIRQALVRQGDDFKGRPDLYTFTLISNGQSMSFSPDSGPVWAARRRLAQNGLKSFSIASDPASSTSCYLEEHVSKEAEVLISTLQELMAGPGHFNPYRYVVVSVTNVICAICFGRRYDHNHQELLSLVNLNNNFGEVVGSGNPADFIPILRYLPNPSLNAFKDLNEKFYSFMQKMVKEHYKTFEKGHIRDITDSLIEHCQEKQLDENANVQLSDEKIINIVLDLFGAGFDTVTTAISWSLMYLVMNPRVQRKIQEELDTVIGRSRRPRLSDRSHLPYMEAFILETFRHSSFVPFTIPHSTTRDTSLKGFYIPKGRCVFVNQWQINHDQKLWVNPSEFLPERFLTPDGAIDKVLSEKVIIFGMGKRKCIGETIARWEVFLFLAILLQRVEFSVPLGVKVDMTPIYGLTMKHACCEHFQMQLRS
Method: as §1, §2, §3

CYP1A2 = target: T3, CYP1A2 (Homo sapiens, UniProt P05177); assay: Michaelis–Menten kinetics of oxidation to fluorescent 7-hydroxy metabolite by recombinant CYP1A2; parameters: key to screening activity class: NA, no activity was observed.; LA, low screening activity at the 20 μM substrate and 25 nM CYP concentration; conditions: for Vmax: recombinant CYP1A2, surrogate standard
T3 construct: purchased BD Biosciences Discovery Labware (Woburn, MA, USA); host or cells: baculovirus-insect cells
T3 sequence (P05177 1-516): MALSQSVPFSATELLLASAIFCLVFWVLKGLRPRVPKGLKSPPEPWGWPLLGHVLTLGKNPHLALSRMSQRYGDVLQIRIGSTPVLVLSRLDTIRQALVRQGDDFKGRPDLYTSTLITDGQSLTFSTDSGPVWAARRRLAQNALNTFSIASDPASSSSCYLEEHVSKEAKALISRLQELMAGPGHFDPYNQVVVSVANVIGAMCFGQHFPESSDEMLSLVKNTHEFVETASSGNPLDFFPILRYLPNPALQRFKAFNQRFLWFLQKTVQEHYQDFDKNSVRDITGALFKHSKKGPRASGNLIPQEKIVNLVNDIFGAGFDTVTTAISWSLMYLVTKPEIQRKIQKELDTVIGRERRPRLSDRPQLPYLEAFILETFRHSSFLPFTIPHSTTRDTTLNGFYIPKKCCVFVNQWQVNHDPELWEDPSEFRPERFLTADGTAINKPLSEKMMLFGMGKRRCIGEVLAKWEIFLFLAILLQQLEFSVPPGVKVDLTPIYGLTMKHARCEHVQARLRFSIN
Method: as §1, §2, §3

[3] = 95% confidence interval in brackets

| screening activity class (human CYP1B1) | SMILES | substrate efficiency compared among CYP1 enzymes [1] | CYP1 form oxidizing the substrate fastest [2] | fluorescence change and rate of the oxidation [2] | also measured |
| --- | --- | --- | --- | --- | --- |
| LA | COc1ccc2oc(=O)c(-c3ccc(OC(F)(F)F)cc3)cc2c1 [Compound 16, 3-(4-trifluoromethoxyphenyl)-6-methoxycoumarin] | oxidized with equal efficiency by CYP1A1 and CYP1A2 and weakly by CYP1B1 | oxidized faster by CYP1A1 than CYP1A2 or CYP1B1 | – | – |
| LA | COc1ccc2cc(-c3ccc(OC(F)(F)F)cc3)c(=O)oc2c1 [Compound 18, 3-(4-trifluoromethoxyphenyl)-7-methoxycoumarin] | oxidized with equal efficiency by CYP1A1 and CYP1A2 and weakly by CYP1B1 | oxidized faster by CYP1A2 than CYP1A1 or CYP1B1 | – | – |

Further lines, the compound ahead of its results:

| SMILES | screening activity class (human CYP1B1) | substrate efficiency compared among CYP1 enzymes [1] | CYP1 form oxidizing the substrate fastest [2] | fluorescence change and rate of the oxidation [2] | also measured |
| --- | --- | --- | --- | --- | --- |
| O=c1oc2ccc(O)cc2cc1-c1cccc(O)c1 [Compound 15, 3-(3-hydroxyphenyl)-6-hydroxycoumarin] | – | efficient substrate for CYP1A2 compared with CYP1A1 and CYP1B1 | oxidized faster by CYP1A2 than CYP1A1 or CYP1B1 | – | Vmax (human CYP1B1; recombinant CYP1B1, surrogate standard, 95% confidence interval in brackets): 0.29 mol/(min·mol CYP) |
| COc1cccc(-c2cc3cc(OC)ccc3oc2=O)c1 [Compound 19, 3-(3-methoxyphenyl)-6-methoxycoumarin] | – | oxidized with equal efficiency by all CYP1 enzymes | oxidized faster by CYP1A1 than CYP1A2 or CYP1B1 | – | – |
| CCCCCOc1ccc2nc3ccc(=O)cc-3oc2c1 [Compound 26, 7-pentoxyresorufin, reference compound] | – | efficient substrates for CYP1A1 compared with CYP1A2 and CYP1B1 | oxidized faster by CYP1A1 than the other CYP1 enzymes | lowest | Vmax (human CYP1A1): 1.35 mol/(min·mol CYP); Vmax (CYP1A2; [3]): 0.25 mol/(min·mol CYP) |
| CCOc1ccc2nc3ccc(=O)cc-3oc2c1 [Compound 25, 7-ethoxyresorufin, reference compound] | – | efficient substrates for CYP1A1 compared with CYP1A2 and CYP1B1 | oxidized faster by CYP1A1 than the other CYP1 enzymes | – | oxidation rate by CYP1A2 and CYP1B1 relative to the rate of CYP1A1 ([2]; 1 μM substrate): 30–40%; oxidation rate relative to oxidation of 7-pentoxyresorufin [2]: 60 times |
| Cc1ccc2oc(=O)c(-c3ccc(F)cc3)cc2c1 [Compound 21, 3-(4-fluorophenyl)-6-methylcoumarin] | LA | – | oxidized faster by CYP1A2 than CYP1A1 or CYP1B1 | almost equally low | screening activity class (human CYP1A1): LA |
| CC(=O)Oc1ccc(-c2cc3cc(Cl)ccc3oc2=O)cc1 [Compound 20, 3-(4-acetoxyphenyl)-6-chlorocoumarin] | – | efficient substrate for CYP1B1 compared with CYP1A1 and 1A2 | oxidized faster by CYP1A1 than CYP1A2 or CYP1B1 | – | Vmax (human CYP1A1): 6.5 mol/(min·mol CYP) |
| CCOc1ccc2ccc(=O)oc2c1 [Compound 24, 7-ethoxycoumarin, reference compound] | – | efficient substrates for CYP1A1 compared with CYP1A2 and CYP1B1 | oxidized faster by CYP1A1 than the other CYP1 enzymes | – | Km (CYP1A2; human, recombinant CYP1A2 (baculovirus-insect cell-expressed), recombinant CYP1A2, 100 mM Tris-HCl pH 7.4, 37 °C, 95% confidence interval in brackets): 7.7 µM; Vmax (CYP1A2; [3]): 2.0 (1.4–2.6) mol/(min·mol CYP); oxidation rate relative to oxidation of 7-pentoxyresorufin [2]: 35 times |
| CC(=O)Oc1cccc(-c2cc3cc(Cl)ccc3oc2=O)c1 [Compound 22, 3-(3-acetoxyphenyl)-6-chlorocoumarin] | – | – | oxidized faster by CYP1B1 than by CYP1A1 or CYP1A2 | almost equally low | screening activity class (human CYP1A1): LA; screening activity class (CYP1A2; CYP1A2, 20 μM substrate and 25 nM CYP): LA |
| COc1ccc2oc(=O)c(-c3ccc(O)c(F)c3)cc2c1 [Compound 13, 3-(3-fluoro-4-hydroxyphenyl)-6-methoxycoumarin] | – | efficient substrates for CYP1A1 compared with CYP1A2 and CYP1B1 | oxidized faster by CYP1A1 than CYP1A2 or CYP1B1 | – | Vmax (human CYP1A1): 32 mol/(min·mol CYP) |
| COc1ccc(-c2cc3cc(OC(C)=O)ccc3oc2=O)cc1 [Compound 17, 3-(4-methoxyphenyl)-6-acetoxycoumarin] | LA | – | oxidized faster by CYP1A2 than CYP1A1 or CYP1B1 | – | – |
| O=c1oc2ccccc2cc1-c1cccc(O)c1 [Compound 23, 3-(3-hydroxyphenyl)coumarin] | LA | – | oxidized faster by CYP1A2 than CYP1A1 or CYP1B1 | lowest | screening activity class (human CYP1A1): LA |
